This note sets out measurements from patent EP0272446B1, “Novel antiviral agents” (SRI INTERNATIONAL, priority 1983, dated 1984).

The test system of data set [1] is Thymidine Kinase-Positive Type 1 Herpes Virus. The data set can be described thus: In vitro antiviral test, inhibition of viral cytopathic effect (CPE) in MA-104 cell monolayers. It counts as cell-based, Strain McCrae of type 1 herpes. How it is done: The compounds of Example I and II were evaluated in vitro as antiviral agents against herpes virus.
The virus strain employed was Strain McCrae of type 1 herpes (thymidine kinase positive virus) prepared and titered in MA-104 cells and frozen at -90°C until use.
(§1) Continuous passaged monkey kidney (MA-104) cells were used, with growth medium consisting of Minimum Essential Medium (MEM) supplemented with 0.1% NaHCO₃ and 9% fetal calf serum. Test medium consisted of MEM supplemented with 2% fetal bovine serum, 0.18% NaHCO₃ and […] gentamicin.
The last compounds were added to test medium at a concentration of 2000 µg/ml for use as a positive control.
(§2) To a 96 well microtiter plate containing an established 24 hour monolayer of cells from which the medium has been decanted was added 0.1 ml of varying (one-half log₁₀) concentrations of test compound, which incubated on the cell 15 minutes, after which 0.1 ml of virus in a concentration of 320 cell culture 50% infectious doses (CCID50)/0.1 ml was added. The plate was covered with plastic wrap and incubated at 37°C. Included with the test were toxicity controls (each concentration of compound + test medium in place of […]) and cell controls (test medium in place of compound and virus). The cells were examined microscopically after 72 hours for evidence of cytotoxicity and for viral cytopathic effect (CPE). Vidarabine was run on the same plate in parallel.
Antiviral activity was determined by observation of inhibition of viral CPE. This activity was expressed by minimum inhibitory concentration (MIC), Defined as that dose range of compound causing 50% CPE inhibition. A Virus Rating (VR) was also determined, which is a numerical expression of antiviral activity, weighted to take into account any cytotoxicity observed. Generally, a VR of 0.1 - 0.4 is usually indicative of slight antiviral effect, 0.5 - 0.9 indicates moderate antiviral effedt, and >1.0 implies strong antiviral activity.

Data set [2] is described as follows: Cytotoxicity (toxicity controls) in the antiviral test, maximum tolerated dose. The class given is cell-based. To be noted: monkey, ma-104 cells, Table B. The protocol:
as §1, §2

In the next data set the test system is cytomegalo virus. Briefly: In vitro antiviral test (CPE inhibition method) against cytomegalo virus. It counts as cell-based. The protocol:
as §2
Antiviral activity was determined by observation of inhibition of viral CPE. This activity was expressed by minimum inhibitory concentration (MIC), Defined as that dose range of compound causing 50% CPE inhibition. A Virus Rating (VR) was also determined, which is a numerical expression of antiviral activity, weighted to take into account any cytotoxicity observed. […]
The compound of Example II was further evaluated by the above-described in vitro test method against cytomegalo virus. […]

The subject of data set [3] is thymidine kinase positive herpes virus. The data set can be described thus: In vivo test in guinea pigs inoculated with herpes virus, lesions measured. To be noted: for Satellite lesions: five days later; for TK+ virus, average number of lesions: measured five days later. The protocol:
The compound of Example II was tested in vivo in guinea pigs as an agent against thymidine kinase positive herpes virus. The animals were innoculated with the virus. Eighteen hours later the material of Example II (0.4% solution in water or 1-2% solution), a 5% solution of acyclovir or a 1.4% solution of poly(vinylalcohol) was administered and five days later blister diameters at the point of innoculation were measured. Satellite lesions were measured as well.

Setting [4] is: MA104, 72 h, read-out: CPE Inhib. (%).
Setting [5] is: MA104, read-out: MIC (Minimum inhibitory concentration).
The mark [6] stands for this setting: MA104, read-out: Test1 CPE Inhib. (%).
Where [7] appears, read: MA104, read-out: Test2 CPE Inhib. %.
Setting [8] is: Table A, 0.1 - 0.4 = slight, 0.5 - 0.9 = moderate, ≥ 1.0 = strong activity.
The mark [9] stands for this setting: Test 1, read-out: MTD (Maximum tolerated dose).
The mark [10] stands for this setting: Test 2, read-out: MTD (Maximum tolerated dose).
[11] abbreviates: 0.4% solution in water given eighteen hours after inoculation.
Where [12] appears, read: 1-2% saturated solution given eighteen hours after inoculation.
The mark [13] stands for this setting: 5% solution given eighteen hours after inoculation.

SMILES strings stand for the structures. Values after ≈ are worked out from the molar mass of the structure shown. Like-named read-outs stand apart in the source and are kept apart here. Bounds are passed on as bounds.

With `Nc1ncnc2c1ncn2[C@@H]1O[C@H](CO)[C@@H](O)[C@@H]1O` [Vidarabine, reference compound], in data set [1] (setting [4]), the inhibition at 1 µg/mL came to 56%, the inhibition at 3.2 µg/mL came to 28%, the inhibition at 10 µg/mL stood at 69% and the inhibition at 32 µg/mL is 87%. In addition, in data set [1] (setting [4]), the inhibition at 100 µg/mL was 87%, the inhibition at 320 µg/mL worked out at 100% and the inhibition at 1000 µg/mL was 100%. The EC50 in data set [1] (setting [5]) was 10 µg/mL (≈ 37.4 µM). Moreover, in data set [1] (setting [6]), the inhibition at 3.2 µg/mL came to 2%, the inhibition at 10 µg/mL is 60%, the inhibition at 32 µg/mL stood at 96% and the inhibition at 100 µg/mL was determined as 96%. Moreover, in data set [1] (setting [6]), the inhibition at 320 µg/mL amounted to 100% and the inhibition at 1000 µg/mL was found to be 100%. In data set [1] (setting [7]), the inhibition at 3.2 µg/mL came out at 0%, the inhibition at 10 µg/mL was 39%, the inhibition at 32 µg/mL was determined as 57% and the inhibition at 100 µg/mL was 85%. Also, in data set [1] (setting [7]), the inhibition at 320 µg/mL was 100% and the inhibition at 1000 µg/mL was found to be 100%. For the same molecule, the “VR (Virus rating)” value in data set [1] (setting [8]) came to 1.3. For the same molecule, in data set [1] (Table B, Test 1), the “VR (Virus rating)” value is reported as 0.8. Further, in data set [1] (Table B, Test 2), the “VR (Virus rating)” value is 07. The MNTC at 72 h in data set [2] (setting [9]) was 10 µg/mL. Also, the MNTC at 72 h in data set [2] (setting [10]) stood at 10 µg/mL.

Consider `CCOP(=O)(O)CCCOCn1cnc2c(=O)[nH]c(N)nc21` [Example II, 9(3-ethylphosphono-1-propyloxymethyl)guanine], for which the EC50 in data set [1] (setting [5]) is less than 1 µg/mL. Further, in data set [1] (setting [6]), the inhibition at 1.2 µg/mL turned out to be 69%, the inhibition at 3.2 µg/mL came to 96%, the inhibition at 10 µg/mL came out at 38% and the inhibition at 32 µg/mL was 6%. For the same molecule, in data set [1] (setting [6]), the inhibition at 100 µg/mL stood at 47%, the inhibition at 320 µg/mL was determined as 82% and the inhibition at 1000 µg/mL amounted to 100%. Also, in data set [1] (setting [7]), the inhibition at 1.2 µg/mL is 48%, the inhibition at 3.2 µg/mL turned out to be 52%, the inhibition at 10 µg/mL came to 48% and the inhibition at 32 µg/mL amounted to 57%. In data set [1] (setting [7]), the inhibition at 100 µg/mL was determined as 57%, the inhibition at 320 µg/mL stood at 67% and the inhibition at 1000 µg/mL came out at 76%. The “VR (Virus rating)” value in data set [1] (Table B, Test 1) is recorded as more than 2.0. Moreover, the “VR (Virus rating)” value in data set [1] (Table B, Test 2) is reported as more than 1.4. The “MIC (Minimum inhibitory concentration)” value in data set [1] (Table B, Test 2, dosage range wherein a 50% CPE inhibition is seen) was less than 1.0 µg/mL. Moreover, the MNTC at 72 h in data set [2] (setting [9]) stood at 320 µg/mL. For the same molecule, in data set [2] (setting [10]), the MNTC at 72 h is more than 1000 µg/mL. Moreover, the VR in the data set with cytomegalo virus was 2.1-2.3. Besides, in data set [3] (setting [11]), the Satellite lesions worked out at 11 and the “TK+ virus, average number of lesions” value stood at 2.1. Also, in data set [3] (setting [12]), the Satellite lesions came to 6 and the “TK+ virus, average number of lesions” value is listed as 0.9.

In the case of `Nc1nc2c(ncn2COCCO)c(=O)[nH]1` [Acyclovir, acyclovir, reference compound], in data set [3] (setting [13]), the Satellite lesions worked out at 4 and the “TK+ virus, average number of lesions” value amounted to 1.0.

With `Nc1nc2c(ncn2COCCCP(=O)(O)O)c(=O)[nH]1` [Example I, 9(3-phosphono-1-propyloxymethyl)guanine], in data set [1] (MA104, Table A, conc. 1.0 μg/ml, 72 hours, read-out: CPE Inhib. (%)), the inhibition at 1 µg/mL stood at 31%. The inhibition at 3.2 µg/mL in data set [1] (MA104, Table A, conc. 3.2 μg/ml, 72 hours, read-out: CPE Inhib. (%)) amounted to 28%. Further, in data set [1] (MA104, Table A, conc. 10 μg/ml, 72 hours, read-out: CPE Inhib. (%)), the inhibition at 10 µg/mL turned out to be 49%. Besides, the inhibition at 32 µg/mL in data set [1] (MA104, Table A, conc. 32 μg/ml, 72 hours, read-out: CPE Inhib. (%)) stood at 62%. In addition, the inhibition at 100 µg/mL in data set [1] (MA104, Table A, conc. 100 μg/ml, 72 hours, read-out: CPE Inhib. (%)) worked out at 79%. In addition, in data set [1] (MA104, Table A, conc. 320 μg/ml, 72 hours, read-out: CPE Inhib. (%)), the inhibition at 320 µg/mL turned out to be 94%. Besides, the inhibition at 1000 µg/mL in data set [1] (MA104, Table A, conc. 1000 μg/ml, 72 hours, read-out: CPE Inhib. (%)) turned out to be 100%. The EC50 in data set [1] (MA104, Table A, dosage range wherein a 50% CPE inhibition is seen, read-out: MIC (Minimum inhibitory concentration)) was 10 µg/mL (≈ 33 µM). Also, in data set [1] (setting [8]), the “VR (Virus rating)” value came out at 1.4.
